For test [1], the system named is Staphylococcus aureus. Briefly: Minimal inhibitory concentration test. In kind it is cell-based. As to conditions: Gram-positive bacteria. As for the experimental part: (§1) Antimicrobial activity of the peptide of the invention was measured by its minimal inhibitory concentration against various test microorganisms (see: Table 1).
(§2) On the other hand, comparison of the antimicrobial activity of the peptide with a commercially available Magainin 2 (Sigma, USA) was followed and summarized in Table 2 below.

In test [2] the test system is Salmonella typhimurium. Briefly: Minimal inhibitory concentration test. The test is classed as cell-based. As to conditions: Gram-negative bacteria. The protocol: as §1, §2

As to Magainin 2, the Minimal inhibitory concentration amounted to 13 mg/mL in test [1] and 25 mg/mL in test [2].

These data come from patent publication US5936063A, “Antimicrobial peptide isolated from Bufo bufo gargarizans” (priority 1998, dated 1999).
